Consider 22 compounds from patent US10631539B2, “Fungicidal compositions” (SYNGENTA PARTICIPATIONS AG, priority 2015, dated 2020).

The first assay concerns Puccinia recondita f. sp. tritici. The assay is described as follows: Puccinia recondita f. sp. tritici / wheat / leaf disc curative (brown rust). In kind it is in vivo. Conditions: foliar, 24 h, wheat leaf disks cv. Kanzler, applied 1 day after inoculation (curative), compared to untreated control, read-out: disease control. The protocol:
Puccinia recondita f. Sp. Tritici/Wheat/Leaf Disc Curative (Brown Rust)
Wheat leaf segments cv. Kanzler are placed on agar in multiwell plates (24-well format). The leaf segments are inoculated with a spore suspension of the fungus. Plates were stored in darkness at 19° C. and 75% rh. The formulated test compound or mixture composition diluted in water was applied 1 day after inoculation. The leaf segments were incubated at 19° C. and 75% rh under a light regime of 12 h light/12 h darkness in a climate cabinet and the activity of a compound or mixture composition was assessed as percent disease control compared to untreated when an appropriate level of disease damage appears in untreated check leaf segments (6-8 days after application).
As for `CCCOC[C@@H](C)Oc1nc(C)c(/N=C/N(C)CC)cc1Br` [Compound 67.003, N′-[5-bromo-2-methyl-6-[(1R)-1-methyl-2-propoxy-ethoxy]-3-pyridyl]-N-ethyl-N-methyl-formamidine], the pest or weed control at 200 ppm is at least 80%.

As to `CCN(C)/C=N/c1cc(Br)c(OC(C)COc2cccc(C(F)(F)F)c2)nc1C` (stereo not shown) [Compound 67.027], the pest or weed control at 200 ppm was at least 80%.

`CCCOCC(C)Oc1nc(C)c(/N=C/N(C)CC)cc1OC(F)F` (stereo not shown) [Compound 67.010]: the pest or weed control at 200 ppm was at least 80%.

Regarding `C=CCOCC(C)Oc1nc(C)c(/N=C/N(C)CC)cc1C#N` (stereo not shown) [Compound 67.017], the pest or weed control at 200 ppm was at least 80%.

Take `CCN(C)/C=N/c1cc(Br)c(OC(C)COc2ccccc2)nc1C` (stereo not shown) [Compound 67.028]: the pest or weed control at 200 ppm is at least 80%.

Consider `CCCOCC(C)Oc1nc(C)c(/N=C/N(C)C(C)C)cc1Br` (stereo not shown) [Compound 67.018, N′-[5-bromo-2-methyl-6-(1-methyl-2-propoxy-ethoxy)-3-pyridyl]-N-isopropyl-N-methyl-formamidine], for which the pest or weed control at 200 ppm was at least 80%.

As for `CCN(C)/C=N/c1cc(C#N)c(OC(C)COc2ccccc2)nc1C` (stereo not shown) [Compound 67.022], the pest or weed control at 200 ppm was at least 80%.

`CCCOCC(C)Oc1nc(C)c(/N=C/N(C)CC)cc1Br` (stereo not shown) [Compound 67.013, N′-[5-bromo-2-methyl-6-(1-methyl-2-propoxy-ethoxy)-3-pyridyl]-N-ethyl-N-methyl-formamidine]: the pest or weed control at 200 ppm is at least 80%.

For the compound `CCN(C)/C=N/c1cc(Cl)c(OC(C)COc2ccc(Cl)cc2)nc1C` (stereo not shown) [Compound 67.024], the pest or weed control at 200 ppm is at least 80%.

In the case of `CCCOC[C@H](C)Oc1nc(C)c(/N=C/N(C)CC)cc1Br` [Compound 67.002, N′-[5-bromo-2-methyl-6-[(1S)-1-methyl-2-propoxy-ethoxy]-3-pyridyl]-N-ethyl-N-methyl-formamidine], the pest or weed control at 200 ppm was at least 80%.

For the compound `CCCOCC(C)Oc1nc(C)c(/N=C/N(C)CC)cc1C` (stereo not shown) [Compound 67.011, N′-[2,5-dimethyl-6-(1-methyl-2-propoxy-ethoxy)-3-pyridyl]-N-ethyl-N-methyl-formamidine], the pest or weed control at 200 ppm is at least 80%.

Regarding `CCN(C)/C=N/c1cc(Cl)c(OC(C)COc2cccc(C(F)(F)F)c2)nc1C` (stereo not shown) [Compound 67.023], the pest or weed control at 200 ppm is at least 80%.

`CCCOCC(C)Oc1nc(C)c(/N=C/N(C)CC)cc1C(F)F` (stereo not shown) [Compound 67.009, N′-[5-(difluoromethyl)-2-methyl-6-(1-methyl-2-propoxy-ethoxy)-3-pyridyl]-N-ethyl-N-methyl-formamidine]: the pest or weed control at 200 ppm was at least 80%.

As for `CCN(C)/C=N/c1cc(Cl)c(OC(C)COc2ccccc2)nc1C` (stereo not shown) [Compound 67.025], the pest or weed control at 200 ppm is at least 80%.

Turning to `CCN(C)/C=N/c1cc(C#N)c(OC(C)COc2ccc(Cl)cc2)nc1C` (stereo not shown) [Compound 67.021], the pest or weed control at 200 ppm is at least 80%.

With `CCN(C)/C=N/c1cc(C#N)c(OC(C)COc2cccc(C(F)(F)F)c2)nc1C` (stereo not shown) [Compound 67.020], the pest or weed control at 200 ppm is at least 80%.

For the compound `CCCOCC(C)Oc1ccc(/N=C/N(C)CC)c(C)n1` (stereo not shown) [Compound 67.012], the pest or weed control at 200 ppm was at least 80%.

For `CCN(C)/C=N/c1cc(Br)c(OC(C)COc2ccc(Cl)cc2)nc1C` (stereo not shown) [Compound 67.026], the pest or weed control at 200 ppm is at least 80%.

Regarding `CCCOCC(C)Oc1nc(C)c(/N=C/N(C)CC)cc1Cl` (stereo not shown) [Compound 67.015, N′-[5-chloro-2-methyl-6-(1-methyl-2-propoxy-ethoxy)-3-pyridyl]-N-ethyl-N-methyl-formamidine], the pest or weed control at 200 ppm was at least 80%.

Take `C=CCOCC(COC)Oc1nc(C)c(/N=C/N(C)CC)cc1Br` (stereo not shown) [Compound 67.016]: the pest or weed control at 200 ppm is at least 80%.

For `CCCOCC(C)Oc1nc(C)c(/N=C/N(C)CC)cc1C#N` (stereo not shown) [Compound 67.007, N′-[5-cyano-2-methyl-6-(1-methyl-2-propoxy-ethoxy)-3-pyridyl]-N-ethyl-N-methyl-formamidine], the pest or weed control at 200 ppm is at least 80%.

Take `C=CCOCC(C)Oc1nc(C)c(/N=C/N(C)CC)cc1Cl` (stereo not shown) [Compound 67.014, N′-[6-(2-allyloxy-1-methyl-ethoxy)-5-chloro-2-methyl-3-pyridyl]-N-ethyl-N-methyl-formamidine]: the pest or weed control at 200 ppm is at least 80%.

The subject of another assay is Blumeria graminis f. Sp. Tritici (Erysiphe qraminis f. Sp. Tritici). The assay is described as follows: Blumeria graminis f. sp. tritici / wheat / leaf disc preventative (powdery mildew on wheat). In kind it is in vivo. The conditions noted are these: foliar, wheat leaf disks cv. Kanzler, inoculated 1 day after application, compared to untreated control, read-out: disease control. The protocol: Blumeria graminis f. Sp. Tritici (Erysiphe qraminis f. Sp. Tritici)/Wheat/Leaf Disc Preventative (Powdery Mildew on Wheat)
Wheat leaf segments cv. Kanzler were placed on agar in a multiwell plate (24-well format) and sprayed with the formulated test compound or mixture composition diluted in water. The leaf disks were inoculated by shaking powdery mildew infected plants above the test plates 1 day after application. The inoculated leaf disks were incubated at 20° C. and 60% rh under a light regime of 24 h darkness followed by 12 h light/12 h darkness in a climate chamber and the activity of a compound or mixture composition was assessed as percent disease control compared to untreated when an appropriate level of disease damage appears on untreated check leaf segments (6-8 days after application).
With `CCCOC[C@H](C)Oc1nc(C)c(/N=C/N(C)CC)cc1Br` [Compound 67.002, N′-[5-bromo-2-methyl-6-[(1S)-1-methyl-2-propoxy-ethoxy]-3-pyridyl]-N-ethyl-N-methyl-formamidine], the pest or weed control at 200 ppm was at least 80%.

The test system of a further assay is Puccinia recondita f. sp. tritici. The assay is described as follows: Puccinia recondita f. sp. tritici / wheat / leaf disc preventative (brown rust). It counts as in vivo. Conditions: foliar, wheat leaf disks cv. Kanzler, inoculated 1 day after application, compared to untreated control, read-out: disease control. How it is done:
Puccinia recondita f. sp. tritici/wheat/leaf disc preventative (brown rust)
Wheat leaf segments cv. Kanzler were placed on agar in multiwell plates (24-well format) and sprayed with the formulated test compound or mixture composition diluted in water. The leaf disks were inoculated with a spore suspension of the fungus 1 day after application. The inoculated leaf segments were incubated at 19° C. and 75% rh under a light regime of 12 h light/12 h darkness in a climate cabinet and the activity of a compound or mixture composition was assessed as percent disease control compared to untreated when an appropriate level of disease damage appears in untreated check leaf segments (7-9 days after application).
On to `CCCOC[C@H](C)Oc1nc(C)c(/N=C/N(C)CC)cc1Br` [Compound 67.002, N′-[5-bromo-2-methyl-6-[(1S)-1-methyl-2-propoxy-ethoxy]-3-pyridyl]-N-ethyl-N-methyl-formamidine], for which the pest or weed control at 200 ppm was at least 80%.

The subject of another assay is Phakopsora pachyrhizi (triazole tolerant soybean rust strain). Nature of the assay: Phakopsora pachyrhizi on soybean, preventive treatment. In kind it is in vivo. Conditions: foliar, 264 h, 1 day preventive, leaf discs evaluated 11 days after application, compared to untreated control, read-out: disease control. The protocol: Phakopsora pachyrhizi on Soybean, Preventive Treatment
The compound or mixture composition activity was tested under 1 day preventive conditions. Soybean plants with a fully enfolded first trifoliate leaf were sprayed with a track sprayer and 50 l/ha spray volume with the test compounds or mixture composition, either solo or in tankmix as shown in the table below.
1 day after application leaf discs were cut from the first trifoliate leaf and placed in multiwell plates on water-agar. 5 leaf discs per treatment where infested with spores of a triazole tolerant soybean rust strain. The multiwell plates where sealed and placed in an incubator 48 h in darkness and 12 h light/dark cycle afterwards. Rust infestation on leaf discs was evaluated visually 11 days after application and average activity calculated in relation to disease severity on untreated check leaf discs.
With `CCCOC[C@H](C)Oc1nc(C)c(/N=C/N(C)CC)cc1Br` [Compound 67.002, N′-[5-bromo-2-methyl-6-[(1S)-1-methyl-2-propoxy-ethoxy]-3-pyridyl]-N-ethyl-N-methyl-formamidine], the pest or weed control at 200 ppm was at least 80%.
